What was measured:
M3 (h) = molecular target: T1, M3 (h) (Homo sapiens, UniProt P20309); test: In vitro CEREP profiling, M3 (h) (antagonist radioligand); assay type: binding; conditions: test compound concentration 10 uM
T1 construct: purchased Eurofins Cerep (SafetyScreen44), recognised from the panel format
Source text: (§1) Supplement media-1.zip/Safety_Panel_Profile.csv, table | column: perc_inhibition

Na+ channel (site 2) = test: In vitro CEREP profiling, Na+ channel (site 2) (antagonist radioligand); assay type: binding; conditions: test compound concentration 10 uM
Source text: as §1

[1] = In vitro rat SD liver microsomal stability; assay type: in vitro ADME
Source text: Supplement media-1.zip/Hepatic_Microsomal_Stability.csv, table | column: clint; t_half

5-HT3 (h) = molecular target: T2, 5-HT3 (h) (Homo sapiens, UniProt P46098); test: In vitro CEREP profiling, 5-HT3 (h) (antagonist radioligand); assay type: binding; conditions: test compound concentration 10 uM
T2 construct: purchased Eurofins Cerep (SafetyScreen44), recognised from the panel format
T2 sequence (P46098 24-478): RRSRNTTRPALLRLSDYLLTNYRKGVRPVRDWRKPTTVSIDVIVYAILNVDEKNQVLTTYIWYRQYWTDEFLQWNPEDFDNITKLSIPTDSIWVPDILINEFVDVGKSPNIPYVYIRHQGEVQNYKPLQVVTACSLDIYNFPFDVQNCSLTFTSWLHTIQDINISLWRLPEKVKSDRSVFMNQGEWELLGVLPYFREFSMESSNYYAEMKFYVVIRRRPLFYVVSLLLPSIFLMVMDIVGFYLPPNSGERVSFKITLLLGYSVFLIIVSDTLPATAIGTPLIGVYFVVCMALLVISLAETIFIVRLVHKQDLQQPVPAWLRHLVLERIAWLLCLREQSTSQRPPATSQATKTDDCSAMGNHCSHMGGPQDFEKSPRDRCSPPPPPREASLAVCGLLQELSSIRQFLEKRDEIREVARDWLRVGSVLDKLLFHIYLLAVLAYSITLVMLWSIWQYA
Source text: as §1

[2] = molecular target: T3, norepinephrine transporter (h) (Homo sapiens, UniProt P23975); test: In vitro CEREP profiling, norepinephrine transporter (h) (antagonist radioligand); assay type: binding; conditions: test compound concentration 10 uM
T3 construct: purchased Eurofins Cerep (SafetyScreen44), recognised from the panel format
T3 sequence (P23975 whole entry): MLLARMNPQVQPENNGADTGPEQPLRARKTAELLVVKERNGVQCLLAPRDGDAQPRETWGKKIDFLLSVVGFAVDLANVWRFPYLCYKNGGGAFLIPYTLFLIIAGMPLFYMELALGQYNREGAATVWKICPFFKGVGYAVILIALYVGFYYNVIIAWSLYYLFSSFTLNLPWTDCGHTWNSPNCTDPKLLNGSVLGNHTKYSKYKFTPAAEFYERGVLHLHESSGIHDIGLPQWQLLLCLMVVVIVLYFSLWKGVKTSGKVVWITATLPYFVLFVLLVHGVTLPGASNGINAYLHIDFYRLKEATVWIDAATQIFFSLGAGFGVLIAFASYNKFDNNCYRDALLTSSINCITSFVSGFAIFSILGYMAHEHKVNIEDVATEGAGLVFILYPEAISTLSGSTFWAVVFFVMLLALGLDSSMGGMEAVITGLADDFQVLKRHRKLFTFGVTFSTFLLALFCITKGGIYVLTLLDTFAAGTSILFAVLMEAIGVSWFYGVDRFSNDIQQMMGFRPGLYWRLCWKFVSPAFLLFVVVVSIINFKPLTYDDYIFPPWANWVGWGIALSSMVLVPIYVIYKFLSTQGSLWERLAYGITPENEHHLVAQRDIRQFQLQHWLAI
Source text: as §1

[3] = In vitro human hepatocyte stability; assay type: in vitro ADME
Source text: Supplement media-1.zip/Hepatocyte_Stability.csv, table | column: clint; t_half

[4] = Hepatic microsomal stability, MLM; assay type: in vitro ADME; conditions: In vitro mouse liver microsomal stability
PDE3A (h) = molecular target: T4, PDE3A (h) (Homo sapiens, UniProt Q14432); test: In vitro CEREP profiling, PDE3A (h); assay type: biochemical; conditions: test compound concentration 10 uM; Enzyme and Cell-based assays
T4 construct: purchased Eurofins Cerep (SafetyScreen44), recognised from the panel format
T4 sequence (Q14432 whole entry): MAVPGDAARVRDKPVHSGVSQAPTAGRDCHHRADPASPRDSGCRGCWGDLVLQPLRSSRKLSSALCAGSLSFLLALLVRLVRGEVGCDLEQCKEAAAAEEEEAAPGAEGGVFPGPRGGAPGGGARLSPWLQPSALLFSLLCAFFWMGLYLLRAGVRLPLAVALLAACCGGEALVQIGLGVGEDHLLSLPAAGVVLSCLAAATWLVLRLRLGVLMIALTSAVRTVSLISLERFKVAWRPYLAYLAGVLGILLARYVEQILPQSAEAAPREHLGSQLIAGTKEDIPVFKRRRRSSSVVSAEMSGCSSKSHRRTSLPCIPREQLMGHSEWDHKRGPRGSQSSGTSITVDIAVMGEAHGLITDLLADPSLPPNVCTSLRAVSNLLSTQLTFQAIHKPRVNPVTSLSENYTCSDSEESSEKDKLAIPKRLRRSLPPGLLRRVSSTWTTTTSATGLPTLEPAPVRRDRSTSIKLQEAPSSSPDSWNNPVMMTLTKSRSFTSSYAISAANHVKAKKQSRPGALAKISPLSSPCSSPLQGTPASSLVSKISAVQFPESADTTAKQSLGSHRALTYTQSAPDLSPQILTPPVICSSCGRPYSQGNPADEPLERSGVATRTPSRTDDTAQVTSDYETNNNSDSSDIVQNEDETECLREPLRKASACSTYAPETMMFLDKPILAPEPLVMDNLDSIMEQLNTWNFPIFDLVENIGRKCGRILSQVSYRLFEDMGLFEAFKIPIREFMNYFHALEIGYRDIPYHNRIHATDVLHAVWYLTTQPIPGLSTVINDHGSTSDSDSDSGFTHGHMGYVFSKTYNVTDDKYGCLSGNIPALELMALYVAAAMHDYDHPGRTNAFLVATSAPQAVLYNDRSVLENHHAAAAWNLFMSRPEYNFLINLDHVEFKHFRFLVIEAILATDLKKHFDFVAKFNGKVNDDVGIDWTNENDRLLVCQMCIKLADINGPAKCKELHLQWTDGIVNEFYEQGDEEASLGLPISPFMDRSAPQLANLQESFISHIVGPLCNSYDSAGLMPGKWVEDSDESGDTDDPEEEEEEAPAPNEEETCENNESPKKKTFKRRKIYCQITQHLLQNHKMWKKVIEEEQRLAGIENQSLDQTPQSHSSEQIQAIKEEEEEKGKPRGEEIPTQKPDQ
Source text: as §1

CYP = CYP inhibition; assay type: in vitro ADME; conditions: In vitro CYP inhibition pooled; for potency: potency class in words
Source text: Supplement media-1.zip/CYP_Inhibition.csv, table | column: ic50; potency

alpha2A (h) = molecular target: T5, alpha2A (h) (Homo sapiens, UniProt P08913); test: In vitro CEREP profiling, alpha2A (h) (antagonist radioligand); assay type: binding; conditions: test compound 10 uM
T5 construct: purchased Eurofins Cerep (SafetyScreen44), recognised from the panel format
T5 sequence (P08913 1-465): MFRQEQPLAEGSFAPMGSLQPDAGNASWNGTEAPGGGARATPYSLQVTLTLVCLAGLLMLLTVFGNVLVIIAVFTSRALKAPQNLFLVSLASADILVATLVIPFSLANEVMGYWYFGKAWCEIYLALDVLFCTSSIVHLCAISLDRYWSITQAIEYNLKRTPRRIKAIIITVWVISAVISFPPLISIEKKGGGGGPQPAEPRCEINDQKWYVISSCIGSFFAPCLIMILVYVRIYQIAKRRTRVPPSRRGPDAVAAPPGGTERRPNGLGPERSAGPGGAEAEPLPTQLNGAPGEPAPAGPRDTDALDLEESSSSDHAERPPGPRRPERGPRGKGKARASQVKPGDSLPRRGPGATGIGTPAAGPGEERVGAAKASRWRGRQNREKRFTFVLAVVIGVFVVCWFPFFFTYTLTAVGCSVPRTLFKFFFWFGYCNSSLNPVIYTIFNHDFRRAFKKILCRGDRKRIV
Source text: as §1

mu (MOP) (h) = molecular target: T6, mu (MOP) (h) (Homo sapiens, UniProt P35372); test: In vitro CEREP profiling, mu (MOP) (h) (agonist radioligand); assay type: binding; conditions: test compound concentration 10 uM
T6 construct: purchased Eurofins Cerep (SafetyScreen44), recognised from the panel format
T6 sequence (P35372 whole entry): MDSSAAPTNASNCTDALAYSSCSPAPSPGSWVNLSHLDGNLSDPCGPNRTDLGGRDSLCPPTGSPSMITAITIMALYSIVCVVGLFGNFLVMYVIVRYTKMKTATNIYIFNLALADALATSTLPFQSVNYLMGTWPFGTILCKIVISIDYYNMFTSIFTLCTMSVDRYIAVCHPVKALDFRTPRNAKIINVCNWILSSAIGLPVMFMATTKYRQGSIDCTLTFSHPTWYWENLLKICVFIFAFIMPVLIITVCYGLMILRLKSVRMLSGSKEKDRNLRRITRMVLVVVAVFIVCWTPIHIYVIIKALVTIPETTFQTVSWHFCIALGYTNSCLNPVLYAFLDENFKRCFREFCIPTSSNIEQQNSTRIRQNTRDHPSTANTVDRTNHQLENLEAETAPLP
Source text: as §1

Vero E6/TMPRSS2 = Vero E6/TMPRSS2 cytotoxicity with P-gp inhibitor; assay type: cell-based
Source text: Supplement media-1.zip/Cytotoxicity.csv, table | column: cc10; cc50; perc_min_measured; perc_max_measured

COX2(h) = molecular target: T7, COX2(h) (Homo sapiens, UniProt P35354); test: In vitro CEREP profiling, COX2(h); assay type: biochemical; conditions: test compound concentration 10 uM; Enzyme and Cell-based assays
T7 construct: purchased Eurofins Cerep (SafetyScreen44), recognised from the panel format
T7 sequence (P35354 18-604): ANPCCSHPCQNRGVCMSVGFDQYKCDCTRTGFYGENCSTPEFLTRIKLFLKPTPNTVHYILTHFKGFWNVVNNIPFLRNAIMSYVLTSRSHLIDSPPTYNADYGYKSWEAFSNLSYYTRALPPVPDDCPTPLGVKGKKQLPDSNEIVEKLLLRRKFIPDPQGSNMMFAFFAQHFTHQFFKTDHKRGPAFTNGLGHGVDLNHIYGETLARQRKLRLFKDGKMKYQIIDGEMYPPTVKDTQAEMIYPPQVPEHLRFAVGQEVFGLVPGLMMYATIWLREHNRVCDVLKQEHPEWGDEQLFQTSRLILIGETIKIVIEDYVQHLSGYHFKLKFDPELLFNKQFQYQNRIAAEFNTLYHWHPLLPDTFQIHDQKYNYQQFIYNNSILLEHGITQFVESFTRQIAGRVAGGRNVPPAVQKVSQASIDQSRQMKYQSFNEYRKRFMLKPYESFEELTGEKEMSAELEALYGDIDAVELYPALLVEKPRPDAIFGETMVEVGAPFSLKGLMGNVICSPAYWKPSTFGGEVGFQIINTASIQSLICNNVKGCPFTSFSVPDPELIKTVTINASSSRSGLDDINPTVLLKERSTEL
Source text: as §1

T1 sequence (P20309 whole entry): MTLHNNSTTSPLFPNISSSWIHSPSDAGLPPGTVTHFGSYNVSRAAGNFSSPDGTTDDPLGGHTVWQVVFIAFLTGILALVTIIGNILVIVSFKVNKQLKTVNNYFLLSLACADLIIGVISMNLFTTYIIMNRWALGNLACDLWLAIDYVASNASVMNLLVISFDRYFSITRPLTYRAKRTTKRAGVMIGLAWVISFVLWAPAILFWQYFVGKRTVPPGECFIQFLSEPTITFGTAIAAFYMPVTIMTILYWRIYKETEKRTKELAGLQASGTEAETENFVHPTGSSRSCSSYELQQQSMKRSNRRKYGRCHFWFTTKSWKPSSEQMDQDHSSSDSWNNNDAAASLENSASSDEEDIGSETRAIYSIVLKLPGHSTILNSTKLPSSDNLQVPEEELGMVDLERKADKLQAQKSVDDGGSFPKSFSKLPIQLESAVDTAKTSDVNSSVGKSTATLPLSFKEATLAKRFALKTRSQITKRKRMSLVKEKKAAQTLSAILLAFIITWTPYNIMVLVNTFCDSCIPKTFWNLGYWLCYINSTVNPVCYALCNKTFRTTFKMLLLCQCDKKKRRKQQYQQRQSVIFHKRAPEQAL

Question: What does the source list for COc1ccc([C@H](Cc2nnn[nH]2)NC(=O)c2ncnc3[nH]ccc23)cc1 [ASAP-0015381]?
Answer: perc_inhibition (% inhibition of the binding of a ligand specific for each target) (M3 (h)): -15%; perc_inhibition (% inhibition of the binding of a ligand specific for each target) (Na+ channel (site 2)): -3%; clint [1]: < 5.0 µL/min/mg; t_half [1]: > 139.0 min; perc_inhibition (% inhibition of the binding of a ligand specific for each target) (5-HT3 (h)): 6%; perc_inhibition (% inhibition of the binding of a ligand specific for each target) [2]: -5%; clint [3]: < 3.0 uL/min/1E6 cells; t_half [3]: > 231.0 min; clint [4]: 7.0 µL/min/mg; perc_remaining [4]: 115.387%; t_half [4]: 205.885 min; perc_remaining_no_cofactor ([4]; no cofactor): 100.411%; perc_inhibition: % inhibition of control enzyme activity, PDE3A (h) (PDE3A (h)): 62%; IC50 (CYP; isoform 1A2): > 50 µM; potency (CYP; isoform 1A2): weak; IC50 (CYP; isoform 2C9): 31.2 µM; potency (CYP; isoform 2C9): weak; IC50 (CYP; isoform 2C19): > 50 µM; potency (CYP; isoform 2C19): weak; IC50 (CYP; isoform 2D6): > 50 µM; potency (CYP; isoform 2D6): weak; IC50 (CYP; isoform 3A4): 25.4 µM; potency (CYP; isoform 3A4): weak; perc_inhibition (% inhibition of the binding of a ligand specific for each target) (alpha2A (h)): -1%; perc_inhibition (% inhibition of the binding of a ligand specific for each target) (mu (MOP) (h)): -3%; CC50 (Vero E6/TMPRSS2): > 5 µM; cc10 (Vero E6/TMPRSS2): > 5.0 µM; perc_max_measured (Vero E6/TMPRSS2; highest measured response of the dose series): 119.979%; perc_min_measured (Vero E6/TMPRSS2; lowest measured response of the dose series): 89.804%; perc_inhibition: % inhibition of control enzyme activity, COX2(h) (COX2(h)): -1%
